Laboratory results reported in patent publication US20230279244A1, “RESIN COMPOSITION, COATED AND DRIED PRODUCT, MELT-KNEADED PRODUCT, OPTICAL FILTER, IMAGE DISPLAY DEVICE, SOLID-STATE IMAGING ELEMENT, SQUARYLIUM COMPOUND, AND METHOD FOR PRODUCING THE SAME” (FUJIFILM Corporation, priority 2020, published 2023).

What was measured:
[1] = Evaluation of solubility of squarylium compound in toluene/cyclohexanone mixed solvent (Test Example 2); type: physicochemical; settings: for Solubility: mixed solvent toluene/cyclohexanone=90/10 (vol %); for Solubility, measured dissolved amount: dissolved in 100 parts by mass of toluene/cyclohexanone=90/10 (vol %)
Procedure: Solubility of the obtained squarylium compound B-12 in a mixed solvent of toluene/cyclohexanone (toluene/cyclohexanone=90/10 (vol %)) was confirmed. Specifically, a dissolved amount (% by mass) of squarylium compound B-12 dissolved in 100 parts by mass of the mixed solvent of toluene/cyclohexanone was measured.
The solubility was evaluated by applying the obtained dissolved amount to the following standard.
—Evaluation Standard of Solubility—
B: 0.01% by mass or more and less than 0.1% by mass
C: less than 0.01% by mass

[2] = Measurement of maximal absorption wavelength of squarylium compound (Test Example 1); type: physicochemical; settings: in chloroform, concentration 1×10^−6 mol/L, optical path length 10 mm
Procedure: The obtained squarylium compound B-12 was dissolved in chloroform (concentration: 1×10^−6 mol/L), and the maximum absorption wavelength λmax of the squarylium compound B-12 was measured using a cell having an optical path length of 10 mm and using a spectrophotometer UV-1800PC (manufactured by Shimadzu Corporation).

Compound	Solubility [1]	λmax (maximum absorption wavelength) [2]	Solubility in an organic solvent (in words) ([1]; summary of Tables 1 to 5)	Solubility, measured dissolved amount [1]
CCCCC(CC)CN(c1ccc(C2=C([O-])/C(=C3C=C/C(=[N+](\CC(CC)CCCC)c4ccc(C)cc4C)C=C/3NC(=O)C(C)(C)CC)C2=O)c(NC(=O)C(C)(C)CC)c1)c1ccc(C)cc1C (stereo not shown) [A-26]	A (0.1% by mass or more)	688 nm		
CCCCc1ccc(N(CC(CC)CCCC)c2ccc(C3=C([O-])/C(=C4C=C/C(=[N+](\CC(CC)CCCC)c5ccc(CCCC)cc5)C=C/4NC(=O)C(C)(C)CC)C3=O)c(NC(=O)C(C)(C)CC)c2)cc1 (stereo not shown) [A-19]	A (0.1% by mass or more)	687 nm		
CCCCc1ccc(N(CC(CC)CCCC)c2ccc(C3=C([O-])/C(=C4C=C/C(=[N+](\CC(CC)CCCC)c5ccc(CCCC)cc5)C=C/4NC(=O)c4c(C)cc(C)cc4C)C3=O)c(NC(=O)c3c(C)cc(C)cc3C)c2)cc1 (stereo not shown) [A-20]	A (0.1% by mass or more)	696 nm		
CCCCC(CC)CN(CC(CC)CCCC)c1ccc(C2=C([O-])/C(=C3C=C/C(=[N+](\CC(CC)CCCC)c4ccc(C)cc4)C=C/3NC(=O)C(C)(C)CC)C2=O)c(NC(=O)C(C)(C)CC)c1 (stereo not shown) [A-5]	A (0.1% by mass or more)	681 nm		
CCN(c1ccc(C)cc1)c1ccc(C2=C([O-])/C(=C3C=C/C(=[N+](\CC)c4ccc(C)cc4)C=C/3NC(=O)C(C)C)C2=O)c(NC(=O)C(C)C)c1 [C-4, reference compound]	B (0.01% by mass or more and less than 0.1% by mass)	685 nm	exhibiting solubility in an organic solvent	
CCCCc1ccc(N(CC(CC)CCCC)c2ccc(C3=C([O-])/C(=C4C=C/C(=[N+](\CC(CC)CCCC)c5ccc(CCCC)cc5)C=C/4NC(=O)c4ccccc4)C3=O)c(NC(=O)c3ccccc3)c2)cc1 (stereo not shown) [A-28]	A (0.1% by mass or more)	695 nm		
CC(=O)NC1=CC(=[N+](c2ccccc2)c2ccccc2)C=C/C1=C1/C(=O)C(c2ccc(N(c3ccccc3)c3ccccc3)cc2NC(C)=O)=C1[O-] [C-2, reference compound]	C (less than 0.01% by mass)	737 nm		(<0.005% by mass
CCCCc1ccc(N(CC(CC)CCCC)c2ccc(C3=C([O-])/C(=C4C=C/C(=[N+](\CC(CC)CCCC)c5ccc(CCCC)cc5)C=C/4NC(=O)c4ccccc4C)C3=O)c(NC(=O)c3ccccc3C)c2)cc1 (stereo not shown) [A-29]	A (0.1% by mass or more)	695 nm		
CCCCc1ccc(N(CC(CC)CCCC)c2ccc(C3=C([O-])/C(=C4C=C/C(=[N+](\CC(CC)CCCC)c5ccc(CCCC)cc5)C=C/4NC(=O)C(F)(F)F)C3=O)c(NC(=O)C(F)(F)F)c2)cc1 (stereo not shown) [A-22]	A (0.1% by mass or more)	688 nm		
CCCCc1ccc(N(CC(CC)CCCC)c2ccc(C3=C([O-])/C(=C4C=C/C(=[N+](\CC(CC)CCCC)c5ccc(CCCC)cc5)C=C/4NC(=O)c4ccc5ccccc5c4)C3=O)c(NC(=O)c3ccc4ccccc4c3)c2)cc1 (stereo not shown) [A-30]	A (0.1% by mass or more)	697 nm		
CCCCN(c1ccccc1)c1ccc(C2=C([O-])/C(=C3C=C/C(=[N+](\CCCC)c4ccccc4)C=C\3NC(C)=O)C2=O)c(NC(C)=O)c1 [C-6, reference compound]	C (less than 0.01% by mass)	681 nm		(<0.01% by mass
CC(=O)NC1=CC(=[N+](/C)c2ccccc2)/C=CC/1=C1/C(=O)C(c2ccc(N(C)c3ccccc3)cc2NC(C)=O)=C1[O-] [C-1, reference compound]	C (less than 0.01% by mass)	680 nm		(<0.005% by mass
CCCCC(CC)CN(c1ccc(C)cc1)c1ccc(C2=C([O-])/C(=C3C=C/C(=[N+](\CC(CC)CCCC)c4ccc(C)cc4)C=C/3NC(=O)C(C)(C)CC)C2=O)c(NC(=O)C(C)(C)CC)c1 (stereo not shown) [A-2]	A (0.1% by mass or more)	690 nm		
CCCCC(CC)CN(CC(CC)CCCC)c1ccc(C2=C([O-])/C(=C3/C=CC(=[N+](c4ccc(C)cc4)c4ccc(C)cc4)C=C3NC(=O)C(C)(C)CC)C2=O)c(NC(=O)C(C)(C)CC)c1 (stereo not shown) [A-4]	A (0.1% by mass or more)	699 nm		
CCCCC(CC)C(=O)NC1=CC(=[N+](/CCCC)c2ccc(C)cc2)/C=CC/1=C1\C(=O)C(c2ccc(N(CCCC)c3ccc(C)cc3)cc2NC(=O)C(CC)CCCC)=C1[O-] (stereo not shown) [A-1]	A (0.1% by mass or more)	688 nm		
Cc1ccc(N(C)c2ccc(C3=C([O-])/C(=C4C=C/C(=[N+](\C)c5ccc(C)cc5)C=C\4O)C3=O)c(O)c2)cc1 [C-3, reference compound]	C (less than 0.01% by mass)	658 nm		(<0.005% by mass
